Results published in patent US20070032461A1, “1,3 Aclyated 24-keto-vitamin d3 compounds and methods of use thereof” (BioXell S.p.A., priority 2003, published 2007).

What was measured:
[1] = Maximum tolerated dose (MTD) without inducing hypercalcemia, oral daily dosing for four days, serum calcium assay; assay type: in vivo, C57BL/6 mice
Method: The maximum tolerated dose of the vitamin D3 compounds of the invention were determined in eight week-old female C57BL/6 mice (3 mice/group) dosed orally (0.1 ml/mouse) with various concentrations of Vitamin D3 analogs daily for four days. Analogs were formulated in miglyol for a final concentration of 0.01, 0.03, 0.1 0.3, 1, 3, 10, 30, 100 and 300 μg/kg when given at 0.1 ml/mouse p.o. daily. Blood for serum calcium assay was drawn by tail bleed on day five, the final day of the study. Serum calcium levels were determined using a colorimetric assay (Sigma Diagnostics, procedure no. 597). The highest dose of analog tolerated without inducing hypercalcemia (serum calcium >10.7 mg /dl) was taken as the maximum tolerated dose (MTD).

[2] = system: ILT3 surface molecule expression on immature dendritic cells; assay: ILT3 upregulation on monocyte-derived immature dendritic cells, flow cytometric analysis; assay type: cell-based, human; conditions: immature dendritic cells cultured 24 hours with graded doses, up to 1000 nM
Method: Immature dendritic cells (DC) were prepared as described in Romani, N. et al. (Romani, N. et al. (1996) J. Immunol. Meth. 196:137). Briefly, peripheral blood mononuclear cells (PBMCs) were obtained from a buffy coat by ficoll-hypaque gradient (Pharmacia Biotec AB, Upsala, Sweden) and monocytes isolated from PBMCs by negative selected with a monocyte isolation kit (Milteny, Biotech, Bergish Gladblach, Germany). After isolation, monocytes were cultured for 6 to 7 days at a cell density of 1-2×10^6 in RPMI medium supplemented with 5% FetalClone I (Hyclone Laboratories, Logan, Utah) 2 mM L-glutamine, […], 1 mM sodium pyruvate and 1% nonessential amino acids, containing 800 U/ml GM-CSF (Mielogen 300, Schering-Plough) and 10 ng/ml interleukin (IL)-4 (PharMingen, San Diego, Calif.). Every other day, approximately 20% of the medium was removed and replaced by the same volume of fresh medium containing GM-CSF and IL-4.
After 6 to 7 days of culture, non-adherent cells (representing immature Dendritic Cells) were harvested and cultured for 24 hours in the presence of graded doses of the following vitamin D compounds: 1,25(OH)2D3; 1,3-O-Diacetyl-1,25 Dihydroxy-16-ene-24-Keto-19-nor Cholecalciferol (compound (2)); and the compounds Mycophenolate Mofetil (MMF) and Dexamethasone (DEX).
Immunoglobulin-Hike transcript-3 upregulation was evaluated by flow cytometric analysis. Briefly, cells were preincubated with […] human IgG (Sigma Chemical, St. Louis, Mo.) and subsequently stained with anti-human ILT3 antibody (see, e.g., Cella, M. et al. (1997) J. Exp. Med. 185:1743) followed by anti-mouse IgG-phycoerithryn (Jackson). Cells were then analyzed with a FACScan® flow cytometer using a Cell Quests software program (both from Beckton Dickinson, Mountain View, Calif.).

[3] = system: IFN-γ production in MLR (allogeneic PBMC); assay: IFN-γ production by allogeneic T cell activation in the mixed leukocyte response (MLR), ELISA; assay type: cell-based; conditions: 120 h, MLR of allogeneic PBMC from 2 donors, 5 days, read-out: INF-γ IC50
Method: Immature dendritic cells (DC) were prepared as described in Romani, N. et al. (Romani, N. et al. (1996) J. Immunol. Meth. 196:137). IFN-γ production by allogeneic T cell activation in the mixed leukocyte response (MLR) was determined as described in Penna, G., et al., J. Immunol., 164: 2405-2411 (2000).
Briefly, peripheral blood mononuclear cells (PBMC) were separated from buffy coats by Ficoll gradient and the same number (3×10^5) of allogeneic PBMC from 2 different donors were co-cultured in 96-well flat-bottom plates. After 5 days, IFN-γ production in the MLR assay was measured by ELISA and the results expressed as amount (nM) of test compound required to induce 50% inhibition of IFN-γ production (IC50).

[4] = female C57BL/6 mice, p.o. daily for four days, highest dose without hypercalcemia (serum calcium >10.7 mg/dl)

Molecule | MTD (mice) [1, 4] [µg/kg] | ILT3 expression on cell surface [2] | MTD relative to compound (1) ([1]; mice, oral, ratio of the MTD of compound (2) to that of the corresponding dihydroxy compound (1)) | MTD at 4 days ([1]; mouse, po, female C57BL/6 mice, p.o. daily for four days, highest dose without hypercalcemia (serum calcium >10.7 mg/dl)) [µg/kg] | IC50 [3] [pM]
1,25(OH)2D3 | 1 | upregulated | – | – | –
CC(CCC(=O)C(C)(C)O)C1=CCC2C(=CC=C3CC(O)CC(O)C3)CCCC12C (centres unmarked) [(1), 1,25-dihydroxy-16-ene-24-keto-19-nor-cholecalciferol] | 1 | – | – | – | –
CC(=O)O[C@@H]1CC(=C/C=C2\CCC[C@]3(C)C([C@H](C)CCC(=O)C(C)(C)O)=CCC23)C[C@@H](OC(C)=O)C1 (some centres unmarked) [Compound (2), 1,3-O-Diacetyl-1,25-Dihydroxy-16-ene-24-Keto-19-nor-Cholecalciferol] | – | upregulated | more than 300 times | > 300 | 8
COc1c(C)c2c(c(O)c1C/C=C(\C)CCC(=O)OCCN1CCOCC1)C(=O)OC2 [MMF, Mycophenolate Mofetil] | – | fail to upregulate | – | – | –
